The text below walks through data of patent publication US10329249B1, “Sulindac derivatives” (KING SAUD UNIVERSITY, priority 2018, dated 2019).

A short description of data set [1]: DPPH free radical scavenging (antioxidant activity). The following applies: 100 μg/mL compound in 3 mL 0.004% DPPH, 520 nm after 30 min; mean of three replicates ±SD. How it is done: The antioxidant activity was measured based on the scavenging activity of the stable DPPH free radical. 100 μg/mL of the twenty-five sulindac derivative compounds were added to 3 mL 0.004% DPPH solution. Methanol was added to 3 mL 0.004% DPPH solution for the control sample. Absorbance was determined at 520 nm after 30 min. Butylated hydroxytoluene (BHT) was used as a reference drug. The percent inhibition was calculated by the equation:
[formula] where At is the absorbance of the compound and A0 is the absorbance of the control.
(In general: DPPH is a stable violet radical that fades when it is reduced.)

Data set [2] relates to yeast-induced hyperthermia. Put plainly: Anti-pyretic study, brewer's yeast-induced hyperthermia. The format is in vivo, mice. The note with it: mean ±SEM; for Rectal temperature 30 min: 30 min after drug; for Rectal temperature 30 min / Rectal temperature 60 min / Rectal temperature 120 min: Compound 8 150 mg/kg; for Rectal temperature 30 min / Rectal temperature 60 min / Rectal temperature 120 min / Rectal temperature, Control: Sulindac 100 mg/kg; for Rectal temperature 60 min: 60 min after drug; for Rectal temperature 120 min: 120 min after drug; for Rectal temperature, Control: after yeast injection, pre-drug, groups Compound 8 150 mg/kg; for Rectal temperature, Normal: before yeast, groups later given Compound 8 150 mg/kg or Sulindac 100 mg/kg. How it is done: (§1) All animal experiments used healthy male albino rats (200 g-220 g) and mice. The animals were kept in standard plastic animal cages in groups of six animals each with a 12 hour light and dark cycle. The animals were acclimatized to laboratory conditions for a week prior to the experiments.
In an anti-pyretic study, hyperthermia was induced in mice by subcutaneous injection of 20 mL/kg of a 20% aqueous suspension of brewer's yeast in the back below of nape of the neck. The animals were fasted for 24 hours. Water was made available. Control rectal temperature was recorded 24 hours after the yeast injection to determine the pyretic response to yeast. Rectal temperature recordings were then taken 1 hour prior to drug administration in the fevered animals to serve as a pre drug control. […]

The next data set concerns ethanol-induced ulcer. Put plainly: Ulcer study using 80% ethanol (gastric mucosal damage score). The format is in vivo, rats. The note with it: sulindac 100 mg/kg; for Ulcer Index: mean ±SEM; for % Inhibition (ulcer index): Cmpd 8 150 mg/kg, versus 80% EtOH alone. How it is done:
as §1
In an ulcer study of sulindac derivatives using 80% ethanol, the ethanol-induced ulcer model was used to study gastro-protective activity of sulindac derivative Compound 8. Rats were grouped into five groups (n=6). Group I received 80% ethanol only and served as an ulcer control. Group II received 80% ethanol and sulindac (100 mg/kg) orally. […] Animals in Group IV received sulindac (100 mg/kg body weight) without any ethanol. […] Animals of all Groups were sacrificed 1 hour later under anesthesia and their stomachs were quickly removed for further studies. The stomach was opened along the greater curvature, washed with distilled water and cleaned gently by dipping in saline. The mucosal damage was assessed according to the following scoring system: redness=0.5, spot ulcer=1.0, hemorrhagic streaks=1.5, ulcer>3 but<5=2.0, ulcers>5=3.0. The mean score of each treated group minus the mean score of the control group was taken as the severity index of gastric mucosal damage. Results were calculated by ANOVA followed by Dunnett's multiple comparison test and are summarized in Table 7, represent mean±SEM; ***=p<0.001 (n=6).

Data set [3] can be described thus: LD50 by the Karber method. The format is in vivo. The note with it: 24 hours observation. How it is done:
In a study of the LD50 of sulindac derivative Compound 8, the LD50 (lethal dose 50%) was calculated for compound 8 by the Karber method. For determination of LD50, an observation was made for 24 hours, and symptoms of toxicity and rate of mortality were noted. Expired animals were counted at the end of the study period for the calculation of LD50 according to: LD50=LD100−Σ(a×b)/n, where n is the total number of animals in a group, a is the difference between two successive doses of administered extract/substance, b is the average number of dead animals in two successive doses, and LD100 is the lethal dose causing 100% death of all test animals.

The mark [4] stands for this setting: with 80% EtOH, Cmpd 8 150 mg/kg oral, sacrificed 1 hour later.

Marks after values point to notes of the source that are not given here.

The term LD50 denotes the dose at which mortality reaches 50%. Read a high LD50 as lower toxicity. `CC1=C(CC(=O)N/N=C\c2ccc(N(C)C)cc2)c2cc(F)ccc2/C1=C\c1ccc([S+](C)[O-])cc1` (centres unmarked) [Compound 8]: the “Scavenging Effect” value in data set [1] was 85.10 ± 6.80%. The “Rectal temperature 30 min” value in data set [2] was 38.15 ± 0.10 °C. Besides, the “Rectal temperature 60 min” value in data set [2] is 37.83 ± 0.15 °C. In addition, the “Rectal temperature 120 min” value in data set [2] turned out to be 37.33 ± 0.12 °C. The “Rectal temperature, Control” value in data set [2] was found to be 38.38 ± 0.19 °C. In data set [2], the “Rectal temperature, Normal” value is 35.16 ± 0.10 °C. For the same compound, the “Ulcer Index” value in the data set with ethanol-induced ulcer (setting [4]) is 4.33 ± 0.4***. Moreover, the “% Inhibition (ulcer index)” value with ethanol-induced ulcer (with 80% EtOH) turned out to be 40.90%. Further, the “# Dead” value in data set [3] (dose 100 mg/kg) came out at 0; in data set [3] (dose 200 mg/kg), 0; in data set [3] (dose 400 mg/kg) it was 1; in data set [3] (dose 800 mg/kg), 3; in data set [3] (dose 1600 mg/kg), 5; in data set [3] (dose 2000 mg/kg), 9. The compound further yielded an LD50 at 24 h in data set [3] (in vivo, Karber method, LD50=LD100−Σ(a×b)/n) of 1310 mg/kg.
In the case of `CC1=C(CC(=O)O)c2cc(F)ccc2/C1=C\c1ccc([S+](C)[O-])cc1` (centres unmarked) [Sulindac], in data set [2], the “Rectal temperature 30 min” value is 37.46 ± 0.14 °C; the “Rectal temperature 60 min” value turned out to be 37.16 ± 0.09 °C; the “Rectal temperature 120 min” value is 36.23 ± 0.08 °C; the “Rectal temperature, Control” value amounted to 38.21 ± 0.31 °C. Besides, in data set [2], the “Rectal temperature, Normal” value was determined as 35.21 ± 0.11 °C. For the same compound, the “Ulcer Index” value in the data set on ethanol-induced ulcer (drug alone, without ethanol, Compound 8 150 mg/kg oral) came out at 1.33 ± 0.49. The “Ulcer Index” value with ethanol-induced ulcer (setting [4]) turned out to be 6.83 ± 0.40. For the same compound, the “% Inhibition (ulcer index)” value with ethanol-induced ulcer (with 80% EtOH) is listed as 6.81%.
